According to patent publication US8481540B2, “Inhibitors of bruton's tyrosine kinase” (Hoffmann-La Roche Inc., priority 2010, dated 2013):

System: B cells in human blood
Experiment: Inhibition of B cell activation in whole blood measured by CD69 expression
Assay type: cell-based
Settings: CD69-positive, CD20-positive cells after anti-IgM stimulation, human whole blood, 20 hours, read-out: Human Whole Blood
Procedure: Inhibition of B Cell Activation in Whole Blood Measured by CD69 Expression
A procedure to test the ability of Btk inhibitors to suppress B cell receptor-mediated activation of B cells in human blood is as follows:
Human whole blood (HWB) is obtained from healthy volunteers, with the following restrictions: 24 hr drug-free, non-smokers. Blood is collected by venipuncture into Vacutainer tubes anticoagulated with sodium heparin. Test compounds are diluted to […] the desired starting drug concentration in PBS (20×), followed by three-fold serial dilutions in 10% DMSO in PBS to produce a nine point dose-response curve. 5.5 μl of each compound dilution is added in duplicate to a 2 ml96-well V bottom plate (Analytical Sales and Services, #59623-23); 5.5 μl of 10% DMSO in PBS is added to control and no-stimulus wells. HWB (100 μl) is added to each well, and after mixing the plates are incubated at 37 C, 5% CO2, 100% humidity for 30 minutes. Goat F(ab′)2 anti-human IgM (Southern Biotech, #2022-14) (10 μl of a […] solution, 50 μg/ml final concentration) is added to each well (except the no-stimulus wells) with mixing and the plates are incubated for an additional 20 hours.
At the end of the 20 hour incubation, samples are incubated with florescent-probe-labeled anti-bodies (15 μl PE Mouse anti-Human CD20, BD Pharmingen, #555623, and/or 20 ul APC Mouse anti-Human CD69, BD Pharmingen #555533) for 30 minutes, at 37 C, 5% CO2, 100% humidity. Included are induced control, unstained and single stains for compensation adjustments and initial voltage settings. Samples are then lysed with 1 ml of 1× Pharmingen Lyse Buffer (BD Pharmingen #555899), and plates are centrifuged at 1800 rpm for 5 minutes. Supernatants are removed via suction and the remaining pellets are lysed again with another 1 ml of 1× Pharmingen Lyse Buffer, and plates are spun down as before. Supernatants are aspirated and remaining pellets are washed in FACs buffer (PBS+1% FBS). After a final spin, the supernantants are removed and pellets are resuspended in 180 μl of FACs buffer. Samples are transferred to a 96 well plate suitable to be run on the HTS 96 well system on the BD LSR II flow cytometer.
Using appropriate excitation and emission wavelengths for the fluorophores used, data are acquired and percent positive cell values are obtained using Cell Quest Software. Results are initially analyzed by FACS analysis software (Flow Jo). […] The IC50 values are calculated using XLfit software version 3, equation 201.
Representative compound data for this assay are listed below in Table II.

| IC50 [nM] | SMILES |
| --- | --- |
| 485 | CN1CCC(c2ccc(Nc3cc(-c4cccc(-n5ccc6cc(C(C)(C)C#N)cc(F)c6c5=O)c4CO)nn(C)c3=O)nc2)C1 (stereo in doubt) [I-89, 2-[8-Fluoro-2-(2-hydroxymethyl-3-{1-methyl-5-[5-((S)-1-methyl-pyrrolidin-3-yl)-pyridin-2-ylamino]-6-oxo-1,6-dihydro-pyridazin-3-yl}-phenyl)-1-oxo-1,2-dihydro-isoquinolin-6-yl]-2-methyl-propionitrile] |
| 52 | Cn1nc(-c2cccc(-n3ncc4cc(C(C)(C)C)cc(F)c4c3=O)c2CO)cc(Nc2ccc(OC(C)(C)CO)cn2)c1=O [I-12, 6-tert-butyl-8-fluoro-2-(3-{5-[5-(2-hydroxy-1,1-dimethyl-ethoxy)-pyridin-2-ylamino]-1-methyl-6-oxo-1,6-dihydro-pyridazin-3-yl}-2-hydroxymethyl-phenyl)-2H-phthalazin-1-one] |
| 9 | Cn1nc(-c2cccc(-n3ncc4cc(C(C)(C)C)cc(F)c4c3=O)c2CO)cc(Nc2ccc(OC(C)(C)CN3CCC3)cn2)c1=O [I-13, 2-(3-{5-[5-(2-azetidin-1-yl-1,1-dimethyl-ethoxy)-pyridin-2-ylamino]-1-methyl-6-oxo-1,6-dihydro-pyridazin-3-yl}-2-hydroxymethyl-phenyl)-6-tert-butyl-8-fluoro-2H-phthalazin-1-one] |
| 65 | Cn1nc(-c2cccc(-n3ncc4cc(C(C)(C)C)cc(F)c4c3=O)c2CO)cc(Nc2ccc(OCC(C)(C)O)cn2)c1=O [I-14, 6-tert-butyl-8-fluoro-2-(2-hydroxymethyl-3-{5-[5-(2-hydroxy-2-methyl-propoxy)-pyridin-2-ylamino]-1-methyl-6-oxo-1,6-dihydro-pyridazin-3-yl}-phenyl)-2H-phthalazin-1-one] |
| 163 | Cn1nc(-c2cccc(-n3ccc4cc(C(C)(C)C#N)cc(F)c4c3=O)c2CO)cc(Nc2ccc(C(=O)N3CCOCC3)cn2)c1=O [I-15, 2-[8-fluoro-2-(2-hydroxymethyl-3-{1-methyl-5-[5-(morpholine-4-carbonyl)-pyridin-2-ylamino]-6-oxo-1,6-dihydro-pyridazin-3-yl}-phenyl)-1-oxo-1,2-dihydro-isoquinolin-6-yl]-2-methyl-propionitrile] |
| 26 | COC[C@H](O)COc1ccc(Nc2cc(-c3cccc(-n4ncc5cc(C(C)(C)C)cc(F)c5c4=O)c3CO)nn(C)c2=O)nc1 [I-16, 6-tert-Butyl-8-fluoro-2-(3-{5-[5-((S)-2-hydroxy-3-methoxy-propoxy)-pyridin-2-ylamino]-1-methyl-6-oxo-1,6-dihydro-pyridazin-3-yl}-2-hydroxymethyl-phenyl)-2H-phthalazin-1-one] |
| 41 | COC[C@@H](O)COc1ccc(Nc2cc(-c3cccc(-n4ncc5cc(C(C)(C)C)cc(F)c5c4=O)c3CO)nn(C)c2=O)nc1 [I-17] |
| 3 | CN1CCC[C@H]1c1ccc(Nc2cc(-c3cccc(-n4ncc5cc(C(C)(C)C)cc(F)c5c4=O)c3CO)nn(C)c2=O)nc1 [I-18, 6-tert-Butyl-8-fluoro-2-(2-hydroxymethyl-3-{1-methyl-5-[5-((S)-1-methyl-pyrrolidin-2-yl)-pyridin-2-ylamino]-6-oxo-1,6-dihydro-pyridazin-3-yl}-phenyl)-2H-phthalazin-1-one] |

Same assay, conditions: Homo sapiens, 20 h, read-out: Human Whole Blood

| SMILES | IC50 [nM] |
| --- | --- |
| Cn1nc(-c2cccc(-n3ncc4cc(C(C)(C)C)cc(F)c4c3=O)c2CO)cc(Nc2ccc(C(=O)N3CCOCC3)cn2)c1=O [I-2, 6-tert-Butyl-8-fluoro-2-(2-hydroxymethyl-3-{1-methyl-5-[5-(morpholine-4-carbonyl)-pyridin-2-ylamino]-6-oxo-1,6-dihydro-pyridazin-3-yl}-phenyl)-2H-phthalazin-1-one] | 14 |

Same assay, conditions: Homo sapiens, 20 h, read-out: Human Whole Blood, CD69-positive, CD20-positive cells after anti-IgM stimulation, human whole blood, 20 hours

| SMILES | IC50 [nM] |
| --- | --- |
| CN(C)C(=O)c1ccc(Nc2cc(-c3cccc(-n4ncc5cc(C(C)(C)C)cc(F)c5c4=O)c3CO)nn(C)c2=O)nc1 [I-10, 6-{6-[3-(6-tert-Butyl-8-fluoro-1-oxo-1H-phthalazin-2-yl)-2-hydroxymethyl-phenyl]-2-methyl-3-oxo-2,3-dihydro-pyridazin-4-ylamino}-N,N-dimethyl-nicotinamide] | 19 |
